This is an account of results in publication PMC6877352, “Modifying the Siderophore Triacetylfusarinine C for Molecular Imaging of Fungal Infection” (Molecular imaging and biology, 2019).

Several values for one entry are separate records, joined by “and”; a condition that tells them apart may be missing. Equal values may be shown once. Entries after “also recorded” stand apart in the source; their conditions may differ.

Data set [1] is described as follows: Protein binding in human serum (size exclusion spin columns). The settings on record: 37 °C, n = 3. As to the method:
At selected time points, 25 μl of serum aliquots was applied on size exclusion spin columns MicroSpin™ G-50 (GE Healthcare, Vienna, Austria). Columns were centrifuged at 2000 rcf for 2 min to separate protein bound radiotracer (eluate) from non-protein bound radiotracer (column). Protein binding ability was determined by measuring activities of column and eluate in the gamma counter.
(SEC sorts molecules by how far they enter the pores of the column.)

Data set [2] relates to A. fumigatus wildtype (ATCC46645). Description: In vitro uptake assay in A. fumigatus. The class given is cell-based, Aspergillus fumigatus. The note with it: iron-starvation condition, 45 min, normalized to [^68Ga]TAFC uptake from the same experiment, n = 3. As to the method:
For in vitro uptake studies, A. fumigatus wildtype (ATCC46645) was used. Fungal strain was cultured at 37 °C in Aspergillus minimal medium (AMM) containing 1 % (m/v) glucose as carbon source, 20 mM glutamine as nitrogen source, salts, and trace elements. Iron-sufficient media were prepared by adding FeSO4 to a final concentration of 30 μM. For iron-deficient conditions, supplementation of iron was omitted. Iron starvation was verified by the detection of extracellular siderophore production which is suppressed by iron supplementation.
Uptake assays were performed in either iron-deficient or iron-sufficient A. fumigatus wildtype cultures. In a 96-well MultiScreen Filter Plates HTS (1 μm glass fiber filter, Merck Millipore, Darmstadt, Germany), 180 μl of A. fumigatus suspended in iron-replete or iron-depleted medium was added. [^68Ga]siderophores (approx. 1 × 10^5 cpm, 80 nM) were incubated with either PBS pH 7.4 (total series) or blocking solution (10 μM [Fe]TAFC) (non-specific series) at RT for 45 min in quadriplicates. The incubation was interrupted by suction of the medium and the plate was washed twice with ice-cold TRIS-buffered saline (10 mM, pH 7.3). The filters were isolated and the remaining activities were measured in the gamma counter. The uptake was calculated as % uptake of total activity added; each assay was repeated three times. To normalize uptake variations between different fungal cultures, the uptake of each [^68Ga]siderophore was expressed as the ratio to [^68Ga]TAFC uptake from the same experiment. The mean values of three different assays were used to quantitatively compare the difference in uptake between the compounds.

Data set [3] is described as follows: Biodistribution in healthy BALB/c mice. The note with it: 90 min p.i. As to the method: At 90 min post injetion (p.i.), mice were sacrified by cervical dislocation. Organs and tissues (blood, spleen, pancrease, stomach, intestine, kidneys, liver, heart, lung, muscle, femur) were collected and weighed. Radioactivities accumulated by tissues were measured in the gamma counter. The obtained values were expressed as the percentage of injected dose per gram tissue (%ID/g). Urine sample from each animal was injected to RP-HPLC for analysis of urinary metabolic profile of [^68Ga]siderophore.

The test system of a further data set is A. fumigatus infection. Description: Small animal PET/CT imaging in rat IPA model. The settings on record: IPA Lewis rats (A. fumigatus lung infection), r.o. injection ~6 MBq, PET/CT 45 min p.i. As to the method:
(§1) PET and CT images were acquired with an Albira PET/SPECT/CT small animal imaging system (Bruker Biospin Corporation, Woodbridge, CT, USA). A. fumigatus infection in rats was established as described by Petrik, et al.. A group of 3 female Lewis rats (2–3 months old), healthy or lung infected, were injected retro-orbitally (r.o.) with [^68Ga] […] Animals were anesthetized with isoflurane (FORANE, Abbott Laboratories, Abbott Park, IL, USA) (2 % flow rate) and positioned prone head first in the Albira system. PET/CT imaging was started 45 min p.i. with a 10-min PET (FOV 148 mm axial) and a subsequent triple CT scanning (FOV 3 × 65 mm axial, 45 kVp, 400 μA, at 400 projections). For reconstruction, Albira software (Bruker Biosoin Corporation, Woodbridge, CZ, USA) was used involving filtered backprojection and MLEM algorithms. PMOD software (PMOD Technologies Ltd., Zurich, Switzerland) was used to analyze and view the reconstructed images.

The nature of data set [4]: Small animal PET/CT imaging in non-infected Lewis rats. The settings on record: for excretion in PET/CT images: healthy Lewis rats, 45 min p.i.; for Lung uptake (non-infected): non-infected Lewis rats, r.o. injection ~6 MBq, PET/CT 45 min p.i. Here is the method: as §1
A short description of data set [5]: Stability in PBS pH 7.4 (RP-HPLC, %RCP). The settings on record: PBS pH 7.4, 37 °C, n = 3. Here is the method:
(§2) [^68Ga]siderophore (50 μl, 2 nmol) was incubated in 450 μl PBS or human serum at 37 °C. At each time point, aliquot of PBS was injected directly to RP-HPLC whereas serum aliquot was mixed with MeOH, vortexed, and centrifuged at 20,000 rcf for 2 min. Supernatant was diluted with H2O and subsequently analyzed by RP-HPLC. The stability was presented as %RCP of radiotracer (n = 3).

Data set [6] is described as follows: Stability in fresh human serum (RP-HPLC, %RCP). The note with it: 37 °C, n = 3. Here is the method: as §2
The subject of data set [7] is A. fumigatus mutant strain ΔsidA/ΔftrA. As to the kind of experiment: Siderophore utilization growth assay. The settings on record: 37 °C, 48 h, 0.1-100 μM [Fe]siderophore in AMM. The class given is cell-based, Aspergillus fumigatus. The source says: For siderophore utilization growth assays, A. fumigatus mutant strain ΔsidA/ΔftrA [7], which can grow only in the presence of externally added iron-siderophores or at high iron concentrations, was used. The fungal strain was inoculated in iron-deficient culture as described above.
To investigate the ability or inability of A. fumigatus to take up and utilize [Fe]siderophores as iron source, a growth assay with the A. fumigatus mutant strain ΔsidA/ΔftrA was employed. In a 24-well plate, aliquots of 10^3 conidia of mutant strain were point inoculated on 1 ml of AMM containing 0.1, 1, 10, 50, or 100 μM of [Fe]siderophore and incubated at 37 °C for 48 h. For the control, fungi were grown in iron-limited AMM without adding [Fe]siderophore.

[8] abbreviates: healthy BALB/c mice, i.v., n = 3.

Turning to `CCCC(=O)NC1CCCN(O)C(=O)C=C(C)CCOC(=O)C(NC(C)=O)CCCN(O)C(=O)C=C(C)CCOC(=O)C(NC(C)=O)CCCN(O)C(=O)C=C(C)CCOC1=O` (stereo not drawn) (68Ga complex, metal not drawn) [DABuFC, diacetylbutanoyl(FSC)], the “Protein binding (%)” value in data set [1] (incubation time 30 min) is 2.63 ± 1.03%; in data set [1] (incubation time 60 min), 2.92 ± 1.11%; in data set [1] (incubation time 120 min), 3.61 ± 1.19%. The “uptake ratio to [^68Ga]TAFC” value in data set [2] is given as 0.87; in data set [2] (listed as [^68Ga]DABuFC) it was “around 1”. The “retention in the blood, spleen, and pancreas in comparison with [^68Ga]TAFC” value in data set [3] (BALB/c mice) was “Slightly lower retention”. In data set [3] (BALB/c mice), the “species detected in urine (RP-HPLC urinary metabolic profile)” value (shortened to “species detected in urine”) is recorded as “only intact”. Moreover, the excretion entry in data set [3] (healthy BALB/c mice, i.v.) is recorded as “rapid renal excretion”. Besides, the blood levels in data set [3] (setting [8]) was under 0.1 %ID/g. The “Lung uptake (infected)” value with A. fumigatus infection is listed as 0.79 ± 0.15 %ID/g. Besides, the “excretion in PET/CT images” value in data set [4] (listed as [^68Ga]DABuFC) is reported as “excreted rapidly via the urinary system; also recorded: certain hepatobiliary excretion”. The “Lung uptake (non-infected)” value in data set [4] came out at 0.23 ± 0.03 %ID/g. The “Stability in PBS (%)” value in data set [5] (30 min) came to 99.87 ± 0.07%; in data set [5] (60 min), 99.85 ± 0.08%; in data set [5] (120 min) it was 99.79 ± 0.14%. The “Stability in serum (%)” value in data set [6] (30 min) is given as 99.58 ± 0.04%; in data set [6] (60 min), 99.59 ± 0.20%; in data set [6] (120 min) it was 99.60 ± 0.14%.
In the case of `CC1=CC(=O)N(O)CCCC(NC(=O)CCC(=O)O)C(=O)OCCC(C)=CC(=O)N(O)CCCC(NC(=O)CCC(=O)O)C(=O)OCCC(C)=CC(=O)N(O)CCCC(NC(=O)CCC(=O)O)C(=O)OCC1` (stereo not drawn) (68Ga complex, metal not drawn) [FSC(suc)3, trisuccinyl(FSC)], the “Protein binding (%)” value in data set [1] (incubation time 30 min) is 2.53 ± 0.63%; in data set [1] (incubation time 60 min) it was 2.96 ± 0.21%; in data set [1] (incubation time 120 min), 2.60 ± 0.62%. Besides, the results for the “uptake ratio to [^68Ga]TAFC” value in data set [2] and in data set [2] (listed as [^68Ga]FSC(suc)3) were 0.01 and “less than 0.05”, respectively. The “retention in the intestine and kidneys in comparison with [^68Ga]TAFC” value in data set [3] (BALB/c mice) was “Slightly lower retention”. For the same compound, the “species detected in urine” value in data set [3] (BALB/c mice) is reported as “only intact”. Moreover, in data set [3] (healthy BALB/c mice, i.v.), the excretion result is on record as “rapid renal excretion”. Besides, in data set [3] (setting [8]), the blood levels was under 0.1 %ID/g. Also, the “Lung uptake (infected)” value with A. fumigatus infection (listed as [^68Ga]FSC(suc)3) is 0.31 ± 0.04 %ID/g and 0.3 %ID/g. Moreover, the “excretion in PET/CT images” value in data set [4] is on record as “excreted rapidly via the urinary system”. For the same compound, in data set [4], the “Lung uptake (non-infected)” value is on record as 0.21 ± 0.03 %ID/g. Also, the results for the “Stability in PBS (%)” value in data set [5] (30 min), in data set [5] (60 min) and in data set [5] (120 min) were 99.85 ± 0.07%, 99.77 ± 0.12% and 99.72 ± 0.09%, respectively. Besides, the “Stability in serum (%)” value stood at 99.59 ± 0.08% in data set [6] (30 min), 99.43 ± 0.17% in data set [6] (60 min) and 99.36 ± 0.08% in data set [6] (120 min).
Turning to `CC(=O)NC1CCCN(O)C(=O)C=C(C)CCOC(=O)C(NC(C)=O)CCCN(O)C(=O)C=C(C)CCOC(=O)C(NC(C)=O)CCCN(O)C(=O)C=C(C)CCOC1=O` (stereo not drawn) (68Ga complex, metal not drawn) [TAFC, triacetylfusarinine C], the “Protein binding (%)” value is on record as 2.54 ± 1.01% in data set [1] (incubation time 30 min), 3.55 ± 0.68% in data set [1] (incubation time 60 min) and 2.96 ± 0.33% in data set [1] (incubation time 120 min). Moreover, the “uptake ratio to [^68Ga]TAFC” value in data set [2] is 1. In addition, the “species detected in urine” value in data set [3] (BALB/c mice) is recorded as “only intact”. Also, the excretion result in data set [3] (healthy BALB/c mice, i.v.) is “rapid renal excretion”. The compound also displayed a blood levels in data set [3] (setting [8]) of under 0.1 %ID/g. For the same compound, the “Lung uptake (infected)” value with A. fumigatus infection amounted to 0.69 ± 0.11 %ID/g. For the same compound, the “excretion in PET/CT images” value in data set [4] is “excreted rapidly via the urinary system”. Further, the “Lung uptake (non-infected)” value in data set [4] was 0.20 ± 0.03 %ID/g. Besides, the “Stability in PBS (%)” value was 99.89 ± 0.02% in data set [5] (30 min), 99.83 ± 0.13% in data set [5] (60 min) and 99.73 ± 0.03% in data set [5] (120 min). Further, the entries for the “Stability in serum (%)” value in data set [6] (30 min), in data set [6] (60 min) and in data set [6] (120 min) were 99.48 ± 0.29%, 99.46 ± 0.09% and 99.41 ± 0.19%, respectively.
Regarding `CCC(=O)NC1CCCN(O)C(=O)C=C(C)CCOC(=O)C(NC(=O)CC)CCCN(O)C(=O)C=C(C)CCOC(=O)C(NC(=O)CC)CCCN(O)C(=O)C=C(C)CCOC1=O` (stereo not drawn) (68Ga complex, metal not drawn) [TPFC, tripropanoyl(FSC)], the “Protein binding (%)” value in data set [1] (incubation time 30 min) is 2.31 ± 0.57%; in data set [1] (incubation time 60 min) it was 3.39 ± 0.32%; in data set [1] (incubation time 120 min), 2.65 ± 0.66%. Moreover, the “uptake ratio to [^68Ga]TAFC” value in data set [2] is listed as 1.40; in data set [2] (listed as [^68Ga]TPFC), about 1.4. Also, the “species detected in urine” value in data set [3] (BALB/c mice) is reported as “only intact”. Further, the excretion result in data set [3] (healthy BALB/c mice, i.v.) is reported as “rapid renal excretion”. The compound also showed a blood levels in data set [3] (setting [8]) of under 0.1 %ID/g. Further, the uptake in intestine result in data set [3] (setting [8]) is given as “lower than 3 %ID/g”. Besides, the “Lung uptake (infected)” value in the data set with A. fumigatus infection is listed as 0.63 ± 0.08 %ID/g. Besides, in data set [4] (listed as [^68Ga]TPFC), the “excretion in PET/CT images” value is listed as “excreted rapidly via the urinary system; also recorded: certain hepatobiliary excretion”. Also, in data set [4], the “Lung uptake (non-infected)” value came out at 0.20 ± 0.02 %ID/g. For the same compound, the “Stability in PBS (%)” value turned out to be 99.90 ± 0.02% in data set [5] (30 min), 99.86 ± 0.04% in data set [5] (60 min) and 99.79 ± 0.11% in data set [5] (120 min). The results for the “Stability in serum (%)” value in data set [6] (30 min), in data set [6] (60 min) and in data set [6] (120 min) were 99.67 ± 0.19%, 99.56 ± 0.23% and 99.54 ± 0.25%, respectively.
Take `CCC(=O)NC1CCCN([O-])C(=O)C=C(C)CCOC(=O)C(NC(=O)CC)CCCN([O-])C(=O)C=C(C)CCOC(=O)C(NC(=O)CC)CCCN([O-])C(=O)C=C(C)CCOC1=O.[Fe+3]` (stereo not drawn) [[Fe]TPFC, tripropanoyl[Fe]FSC]: the “degree of utilization / growth support by [Fe]siderophore” value in data set [7] was “Medium degree”.
tributanoyl[Fe]FSC [[Fe]TBuFC]: the “degree of utilization / growth support by [Fe]siderophore” value in data set [7] is reported as “Medium degree”.
